Measurements: patent publication US9895438B2, “Treatment of cancer with naltrexone” (Cancer Vaccine Institute, priority 2013, dated 2018)
Entries after “also recorded” stand apart in the source; their conditions may differ. Read-outs that look alike come from different tables or passages of the source.

Key:
metastatic melanoma = assay: Patient with chemotherapy-resistant metastatic melanoma treated with LDN
[1] = system: hormone-refractory prostate cancer; assay: Patient with hormone-refractory prostate cancer treated with Mycobacterium vaccae plus LDN; assay type: in vivo, human; settings: one patient, LDN added to Mycobacterium vaccae treatment
TLR4 [2] = target: T1, TLR4 (Homo sapiens, UniProt O00206+Q9Y6Y9); settings: Hutchinson et al. (2008); cited from earlier work
T1 construct: host or cells: HEK-293
T1 sequence (O00206 24-839, species assumed): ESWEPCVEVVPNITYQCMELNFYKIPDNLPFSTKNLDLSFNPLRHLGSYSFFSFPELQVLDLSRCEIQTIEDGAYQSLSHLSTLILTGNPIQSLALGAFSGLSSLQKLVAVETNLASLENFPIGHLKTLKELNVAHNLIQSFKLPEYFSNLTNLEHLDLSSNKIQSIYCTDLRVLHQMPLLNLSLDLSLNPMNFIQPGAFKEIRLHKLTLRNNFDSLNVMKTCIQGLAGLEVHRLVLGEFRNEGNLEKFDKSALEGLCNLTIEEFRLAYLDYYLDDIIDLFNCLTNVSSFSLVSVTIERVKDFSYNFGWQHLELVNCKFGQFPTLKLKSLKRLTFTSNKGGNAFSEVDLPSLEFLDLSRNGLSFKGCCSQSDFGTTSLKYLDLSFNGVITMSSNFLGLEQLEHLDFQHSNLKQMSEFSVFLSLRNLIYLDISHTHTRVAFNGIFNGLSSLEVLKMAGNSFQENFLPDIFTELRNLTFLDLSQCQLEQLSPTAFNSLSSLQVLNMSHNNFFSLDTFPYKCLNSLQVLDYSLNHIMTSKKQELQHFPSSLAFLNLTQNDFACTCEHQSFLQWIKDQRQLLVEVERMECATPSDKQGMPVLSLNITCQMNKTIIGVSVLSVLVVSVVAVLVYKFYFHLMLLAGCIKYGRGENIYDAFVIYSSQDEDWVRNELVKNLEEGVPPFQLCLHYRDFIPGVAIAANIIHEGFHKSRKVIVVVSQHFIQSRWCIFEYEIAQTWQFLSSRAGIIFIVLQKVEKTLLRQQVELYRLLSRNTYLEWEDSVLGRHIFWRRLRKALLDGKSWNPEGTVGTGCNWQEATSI
T1 sequence (Q9Y6Y9 17-160 limits assumed, species assumed): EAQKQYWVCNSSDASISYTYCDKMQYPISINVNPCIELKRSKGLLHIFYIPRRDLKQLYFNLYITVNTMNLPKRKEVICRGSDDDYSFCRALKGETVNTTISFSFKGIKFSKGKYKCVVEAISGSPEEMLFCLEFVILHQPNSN

TLR4 [3] = target: T1, TLR4; assay: TLR4 antagonist assay, HEK-293 transfectants with alkaline phosphatase reporter gene (Invivogen panel); assay type: cell-based; settings: 1 μM naltrexone, O.D. readout (FIG. 1)
Method: (§1) Samples and controls were tested in duplicate on recombinant HEK-293 cell lines expressing the various TLR and NOD receptors with an alkaline phosphatase reporter gene. Cells were incubated with or without 1 μM naltrexone in an antagonist assay using the Invivogen panel of TLR and NOD signalling transfectants. Results shown are for TLR4 and TLR9, TLR activation results are given as optical density (O.D.) values, which have been confirmed in three independent experiments.
(§2) Low dose naltrexone (LDN) was tested in agonist and antagonist assays on a panel of TLR and NOD transfectants (TLR2, TLR3, TLR4, TLR5, TLR7, TLR8, TLR9, NOD1, NOD2). Screening assays were performed by Cayla-Invivogen (Toulouse, France).

TLR9 = target: T2, TLR9 (Homo sapiens, UniProt Q9NR96); assay: TLR9 antagonist assay, HEK-293 transfectants with alkaline phosphatase reporter gene (Invivogen panel); assay type: cell-based
T2 construct: host or cells: HEK-293
T2 sequence (Q9NR96 26-1032): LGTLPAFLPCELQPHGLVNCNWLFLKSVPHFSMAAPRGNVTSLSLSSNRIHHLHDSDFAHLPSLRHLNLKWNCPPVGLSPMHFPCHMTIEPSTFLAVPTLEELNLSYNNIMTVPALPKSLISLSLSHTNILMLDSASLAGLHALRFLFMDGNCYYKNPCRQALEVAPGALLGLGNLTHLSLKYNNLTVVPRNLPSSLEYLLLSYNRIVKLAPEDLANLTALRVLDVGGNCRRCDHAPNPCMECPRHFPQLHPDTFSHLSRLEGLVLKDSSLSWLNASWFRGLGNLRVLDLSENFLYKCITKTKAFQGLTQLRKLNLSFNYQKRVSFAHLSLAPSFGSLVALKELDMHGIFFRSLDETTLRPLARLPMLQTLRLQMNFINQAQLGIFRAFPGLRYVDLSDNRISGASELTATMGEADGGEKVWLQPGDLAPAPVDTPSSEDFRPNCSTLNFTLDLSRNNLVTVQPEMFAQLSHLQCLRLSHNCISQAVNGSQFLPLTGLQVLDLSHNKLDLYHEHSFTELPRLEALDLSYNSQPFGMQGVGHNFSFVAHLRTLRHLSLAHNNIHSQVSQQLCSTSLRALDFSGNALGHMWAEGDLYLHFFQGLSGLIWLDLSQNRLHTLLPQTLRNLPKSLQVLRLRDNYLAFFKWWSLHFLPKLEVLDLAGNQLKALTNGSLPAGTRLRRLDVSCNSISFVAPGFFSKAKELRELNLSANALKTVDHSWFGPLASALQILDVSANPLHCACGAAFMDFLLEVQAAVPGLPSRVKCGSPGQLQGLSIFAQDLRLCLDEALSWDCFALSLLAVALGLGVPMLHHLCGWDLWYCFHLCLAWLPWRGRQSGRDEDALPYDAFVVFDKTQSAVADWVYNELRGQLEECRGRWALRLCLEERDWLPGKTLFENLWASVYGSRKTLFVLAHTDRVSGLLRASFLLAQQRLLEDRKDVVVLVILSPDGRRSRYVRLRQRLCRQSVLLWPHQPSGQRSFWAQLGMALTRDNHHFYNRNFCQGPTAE
Method: as §1, §2

[4] = system: TLR2, TLR3, TLR4, TLR5, TLR7, TLR8, TLR9, NOD1, NOD2; assay: Agonist assays on panel of TLR and NOD transfectants; assay type: cell-based; settings: TLR2, 3, 4, 5, 7, 8, 9, NOD1, NOD2
Method: as §1, §2

## O=C1CC[C@@]2(O)[C@H]3Cc4ccc(O)c5c4[C@@]2(CCN3CC2CC2)[C@H]1O5 [LDN, morphinan-6-one,17-(cyclopropylmethyl)-4,5-epoxy-3,14-dihydroxy-(5α)]
Metastatic melanoma; after administration of low dose naltrexone
  time to development of vitiligo: ≤ 48 h
Metastatic melanoma; one patient previously given vaccine and radiotherapy, LDN as supportive treatment prior to more radiotherapy
  development of vitiligo (sign of activated cytotoxic T cells against melanoma antigens): marked vitiligo
[1]
  prostate-specific antigen levels: drop in prostate-specific antigen levels
TLR4 [2]
  antagonism of TLR4: weakly antagonise TLR4
TLR4 [3]
  antagonism of TLR4: mild antagonistic effect; also recorded: mild antagonist effect
TLR9; antagonist assay, 1 μM naltrexone, O.D. readout (FIG. 1)
  antagonism of TLR9 (recognition of CpG DNA): striking antagonistic effect; also recorded: inhibited recognition of CpG DNA
TLR9; titration, TLR9-transfected cell line, naltrexone diluted in PBS or H2O (FIG. 2), read-out: IC50 for inhibition of TLR9
  IC50: ~50 µM
[4]
  stimulation of signalling (agonism) through TLR and NOD receptors: did not stimulate signalling through any of the receptors tested
